Measured values published in patent US20260373266A1, “PROTEIN DEGRADERS AND USES THEREOF” (KYMERA THERAPEUTICS, INC., priority 2022, published 2026).

Biological target: T1, DCAF1 WD40 domain (residues 1077-1390) (Homo sapiens, UniProt Q9Y4B6)
T1 construct: DCAF1 WD40 domain (residues 1077-1390)
Experiment: DCAF1 binding assay by SPR (Biacore 8K+), DCAF1-3 KD
Settings: 25 °C, read-out: DCAF1-3 SPR (KD)

T1 sequence (Q9Y4B6 1077-1390): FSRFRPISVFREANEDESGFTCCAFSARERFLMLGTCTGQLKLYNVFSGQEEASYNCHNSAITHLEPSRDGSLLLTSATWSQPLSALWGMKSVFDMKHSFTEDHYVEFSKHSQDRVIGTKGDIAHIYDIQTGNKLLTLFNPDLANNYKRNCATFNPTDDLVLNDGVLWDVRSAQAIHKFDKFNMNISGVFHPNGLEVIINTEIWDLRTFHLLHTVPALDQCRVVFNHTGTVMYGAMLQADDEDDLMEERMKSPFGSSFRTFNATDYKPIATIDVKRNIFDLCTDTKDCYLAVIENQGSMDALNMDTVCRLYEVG

| SMILES | Kd [µM] |
| --- | --- |
| Cc1nn(-c2ccccc2)c(C)c1N1CCC[C@@H](Nc2cc(N3CCOCC3)ccn2)C1 [I-418] | > 200 |
| NC(=O)C[C@H](NC(=O)c1[nH]nc(CN2CCOCC2)c1-c1ccccc1F)c1cccc(Cl)c1 [I-178] | > 200 |
| c1ccc2c(N3CCC[C@@H](Nc4cncc(N5CCOCC5)c4)C3)nccc2c1 [I-364] | 10 to 100 |
| CN1CCN(c2cc(N[C@@H]3CCCN(c4cccc(F)c4)C3)ncn2)CC1 [I-374] | > 200 |
| C=CC(=O)NC1CCN(c2ccnc(N[C@@H]3CCCN(c4cccc(F)c4)C3)c2)C1 (stereo partly drawn) [I-456] | > 200 |
| Fc1cccc(N2CCC[C@@H](Nc3ccnc(N4CCOCC4)c3)C2)c1 [I-18] | > 200 |
| CCN(c1nccc(N2CCOCC2)n1)[C@@H]1CCCN(c2cccc(F)c2)C1 [I-42] | > 200 |
| CO[C@@H]1C[C@@H](Nc2cc(N3CCOCC3)ccn2)CN(c2cccc(F)c2)C1 [I-512] | > 200 |
| C=CC(=O)NC1CCC(c2n[nH]cc2C(=O)N[C@@H](CC(N)=O)c2cccc(Cl)c2)CC1 (stereo partly drawn) [I-470] | > 200 |
| CS(=O)(=O)CCN(c1cc(N2CCOCC2)ccn1)[C@@H]1CCCN(c2cccc(F)c2)C1 [I-292] | > 200 |
| Cc1c(N2CCOCC2)ccnc1N[C@@H]1CCCN(c2cccc(F)c2)C1 [I-516] | 10 to 100 |
| NC(=O)C[C@H](NC(=O)c1n[nH]c2c1NCCC2)c1cccc(Cl)c1 [I-299] | > 200 |
| c1ccc2c(N3CCC[C@@H](Nc4cc(N5CCOCC5)ncn4)C3)ccnc2c1 [I-392] | > 200 |
| Fc1cccc(NC2CCCN(c3cc(N4CCOCC4)ncn3)C2)c1 (stereo not drawn) [I-179] | > 200 |
| NC(=O)C[C@H](NC(=O)c1n[nH]c2c1CNCC2)c1cccc(Cl)c1 [I-298] | > 200 |
| C[C@@H](O)c1cncc(N2CCC[C@@H](Nc3cc(N4CCOCC4)ccn3)C2)c1 [I-484] | > 200 |
| NC(=O)C[C@H](NC(=O)c1c[nH]nc1-c1ccccc1Cl)c1cccc(Cl)c1 [I-210] | > 200 |
| O=C(N[C@H](c1cccc(Cl)c1)[C@H]1CCCNC1=O)c1c[nH]nc1-c1ccccc1F [I-194] | > 200 |
| Fc1cccc(N2CCC[C@@H](Nc3nccc(N4CCOCC4)n3)C2)c1 [I-370] | > 200 |
| NC(=O)C[C@H](NC(=O)c1[nH]ccc1-c1ccccc1F)c1cccc(Cl)c1 [I-114] | 10 to 100 |
| Fc1cccc([C@@H]2CCC[C@@H](Nc3cc(N4CCOCC4)ncn3)C2)c1 [I-183] | > 200 |
| Fc1cccc(N2CCC[C@@H](Nc3cccc(N4CCOCC4)c3)C2)c1 [I-380] | > 200 |
| Fc1cccc([C@@H]2CCC[C@@H](Nc3cc(N4CCOCC4)ccn3)C2)c1 [I-184] | > 200 |

Now from value to compound:

| Kd [µM] | SMILES |
| --- | --- |
| < 10 | Oc1ccc(N2CCC[C@@H](Nc3cc(N4CCCCC4)ccn3)C2)cc1 [I-593] |
| < 10 | NC(=O)N1Cc2ccc(N3CCC[C@H]4[C@@H]3CCN4c3cc(N4CCCCC4)ccn3)cc2C1 [I-956] |
| 10 to 100 | O[C@H]1CCCN(c2ccnc(N3CC[C@H]4[C@@H]3CCCN4c3cccc(F)c3)c2)C1 [I-797] |
| 10 to 100 | NC(=O)[C@@H]1CC[C@H](Nc2cc(N3CCCCC3)ccn2)CN1c1cccc(F)c1 [I-1027] |
| > 200 | Fc1cccc(N2CCC[C@H](Cc3cc(N4CCOCC4)[nH]n3)C2)c1 [I-632] |
| 10 to 100 | NCc1cnc(N2CCCCC2)nc1N[C@@H]1CCCN(c2cccc(F)c2)C1 [I-1010] |
| < 10 | C[C@H]1CCCCN1c1ccnc(N2CC[C@@H]3[C@H]2CCCN3c2cccc(F)c2)c1 [I-643] |
| > 200 | O=C(c1cc(N2CCCCC2)ccn1)[C@@H]1CCCN(c2cccc(F)c2)C1 [I-612] |
| 10 to 100 | Fc1cccc(N2CCC[C@@H](Nc3cc(N4CC5CC5C4)ccn3)C2)c1 (stereo partly drawn) [I-574] |
| < 10 | CCC(=O)NC1CCC2(CC1)CCN(c1cccc(N[C@@H]3CCCN(c4cccc(F)c4)C3)c1)CC2 [I-853] |
| > 200 | N#Cc1ccc(N2CCC[C@@H](Nc3cc(N4CCOCC4)ccn3)C2)cc1 [I-774] |
| < 10 | c1ccc(N2CCC[C@@H]3[C@H]2CCN3c2cc(N3CC4CC(C4)C3)ccn2)cc1 [I-708] |
| 10 to 100 | COCCN(C)CC1CCN(c2ccnc(N3CC[C@@H]4[C@H]3CCCN4c3cccc(F)c3)c2)CC1 [I-922] |
